Laboratory results: patent US20230218519A1, “FLUID GEL COMPOSITIONS” (The University of Birmingham, priority 2020, published 2023)
Where two headings read alike, the source gives them in different places.

Key:
[1] = Release assay from PEG-DA fluid gel (trans-well, UV/Vis); assay type: physicochemical; conditions: 3% v/v PEG-DA fluid gel (Example 5.3, 500 rpm), into PBS at 37° C., 5 hrs
Protocol: • Active amounts: […] • Standard concentrations of active in PBS were prepared. • Standards were pipetted into a quartz cuvette (1 mm pathlength). • UV/Vis spectroscopy was used to measure absorbance between 200 and 700 nm wavelength. • Curves were plotted and used to determine standard curves which were used to determine concentrations. • 0.5 ml PBS was added to the well of a 24 well plate. • The PBS was incubated at 37° C. to equilibrate. • 0.1 ml of the fluid gel containing active was placed in a trans-well insert. • The trans-well insert was placed into a well containing PBS. • After a given time period the trans-well insert was removed and placed in a fresh well of PBS. • The release media was then removed and analysed using […] spectroscopy. Concentrations were derived from the standard curves and cumulative release plotted as a function of time.

[2] = test system: primary ovine chondrocytes; assay: Metabolic activity assay (PrestoBlue); assay type: cell-based
Protocol: All cell work was undertaken on primary ovine chondrocytes. Cells were first expanded, then seeded into wells 24 hrs prior to the application of the fluid gels. Once treatments were added, the cells were cultured for a further 3 days before testing for both metabolic activity and cell viability. In the presence of functionalised particles, suspension wells were used to promote adhesion to the gelled particles, away from the plastic. Metabolic activity assay was undertaken using a PrestoBlue™ assay kit (Invitrogen). In brief, cells were washed with Dulbecco's PBS, and 1 mL of PrestoBlue™ supplemented medium (10%) was added to each well and incubated for 4 hrs. 50 μL of supernatant from each well was transferred to one well of a 96 well plate and fluorescence was measured using a Tecan Spark (Tecan Group Ltd, UK) plate reader with excitation/emission wavelengths set at 550/620 nm.

Molecule | release of active agent from fluid gel [1] | also measured
CC(C)Cc1ccc(C(C)C(=O)O)cc1 (stereo not shown) [Ibuprofen, ibuprofen] | able to release | –
CC(C)(O)C(=O)c1ccc(OCCO)cc1 [Irgacure-2959, 1-[4-(2-Hydroxyethoxy)-phenyl]-2-hydroxy-2-methyl-1-propane-1-one] | – | metabolic activity, each constituent part of the PEG-DA formulation [2]: slight reduction in cell metabolism, although not statistical
CC(C)(O)C(=O)c1ccccc1 [Omnirad-1173, 2-hydroxy-2-methyl-1-phenylpropanone] | – | metabolic activity, each constituent part of the PEG-DA formulation ([2]; 3 days culture, PEG-DA not cured, 3.5% & 5%): slight reduction in cell metabolism, although not statistical
dextran | able to release | –
